Test results as given in US20140056983A1, “FOOD ADDITIVE FOR RUMINANTS BASED ON EUGENOL AND CINNAMALDEHYDE” (priority 2005, published 2014).

How the values were obtained:
[1] = system: liquid taken from the rumen; assay: Study 1: in vitro digestibility of dehydrated alfalfa in rumen liquid (Tilley and Terry method); parameters: species or system cows; details: for ADFd (digestibility of acid digestible fiber) / DMd (digestibility of the dry matter) / NDFd (digestibility of neutral digestible fiber): dehydrated alfalfa, 30 ppm additive in total (mixture 15 + 15 ppm), 39° C., 24 hours; for digestibility of the fibers of the dehydrated alfalfa (in words): versus no additive
Procedure: During this first study, the effects of a mixture according to the invention on the digestibility of the feed of the ruminant animals was analyzed, by conducting an “in vitro” study in accordance with the Tilley and Terry method (1963). For a more complete description of this method, please refer to the following publication: […]. and Terry, R. A. 1963. A two stage technique for the in vitro digestion of forage crops. J. Brit. Grassland Soc. 18-104-111. For incubation the following was used: • a) The basic feed made up of 100% dehydrated alfalfa, supplemented by an equal amount of Peugenol, or of cinnamaldehyde, or of a mixture of the two components; • b) MacDougall buffer; • c) Liquid taken from the empty rumen of four animals permanently equipped with a nozzle on the level of the rumen and nourished with the basic feed. […] The ruminated liquid originated in fistulated cows during the first 100 days of lactation. The state of the first container was preserved, without making any addition. […] In the third container, 30 ppm cinnamaldehyde was added. In the fourth container, 15 ppm of eugenol and 15 ppm of cinnamaldehyde was added. The containers were incubated at 39° C. during 24 hours. The DacronTM sachets were removed, washed and dried at 55° C. Various digestibility parameters were determined according to the Van Soest et al. method (1991). For a more complete description of this method, please refer to the following publication: Van Soest, P. J. Robertson. J. D., and Lewis, B. A. 1991. Methods for dietary fibre, neutral detergent fibre and non-starch polysaccharides in relation to animal nutrition. J. Dairy Se. 74: 3583-3597.

[2] = system: Holstein-Freisan milk cows; assay: Study 2: food consumption and dairy production in milk cows, Latin Square 4x4; format: in vivo
Procedure: In the second study, the effect of a variation in the relative proportions of eugenol and cinnamaldehyde in a food additive on the production of meat and the dairy production was tested.
In this test, sixteen Holstein-Freisan milk cows, in their eighth week of lactation, were divided for Latin type Square 4×4 testing. Each period of treatment lasted two weeks.
The first group received a food without an additive.
The second group received a food containing 30 ppm cinnamaldehyde.
The third group received a food containing a mixture of 30 ppm cinnamaldehyde and 15 ppm of eugenol.
The fourth group received a food containing a mixture of 30 ppm eugenol and 16 ppm of cinnamaldehyde.
During each treatment period, the food consumption and the dairy production were measured.

rumen fluid = assay: Study 5: in vitro feed digestibility, dose of the mixture versus monensin (Tilley and Terry method); parameters: species or system cows; details: after 24 hours; mixture 28% eugenol and 17% cinnamaldehyde at 3, 30, 300 mg per animal/per day; monensin as reference
Procedure: In the table above, the characteristics of each food are expressed as a percentage of dry matter, total protein, neutral digestible fiber (NDF), acid digestible fiber (ADF), for the oats, alfalfa, a complete feed (TMR). […] The effects of a mixture according to the invention on the feed digestibility according to the Tilley and Terry method were analyzed. […] Control bottles were also prepared, containing ethanol, to avoid the parasitic effects of fermentation due to ethanol. […] The results were analyzed by using mixed SAS procedures. The results were compared to the feed containing the monensin. The results from the feed containing monensin were considered a reference result. […] Thus, this fable reflects the digestibility of neutral digestible fiber (NDFd), digestibility of acid digestible fiber (ADFd), and dry matter digestibility (DMd), after 24 hours.

[3] = milk cows, eighth week of lactation, two-week treatment periods, ppm in food

## O=CC=Cc1ccccc1 [Cinnamaldehyde, cinnamaldehyde]
[1]
  ADFd (digestibility of acid digestible fiber): 8.53%
  DMd (digestibility of the dry matter): 39.06%
  NDFd (digestibility of neutral digestible fiber): 4.83%
  digestibility of the fibers of the dehydrated alfalfa (in words): does not improve
[2]; [3]
  Food Consumption: 2.571b kg MS/animal/d
  Milk Production: 37.23 l/animal/d
[2]; versus no additive
  food consumption (in words): reduction
  milk production (in words): reduction

## CC[C@@]1([C@@H]2O[C@@H]([C@H]3O[C@@](O)(CO)[C@H](C)C[C@@H]3C)C[C@@H]2C)CC[C@H]([C@]2(C)CC[C@]3(C[C@H](O)[C@@H](C)[C@@H]([C@@H](C)[C@@H](OC)[C@H](C)C(=O)O)O3)O2)O1 [MON, sodium-monensin]
Rumen fluid
  ADFd (digestibility of acid digestible fiber): 24.38
  DMd (dry matter digestibility): 43.43
  NDFd (digestibility of neutral digestible fiber): 22.24

## C=CCc1ccc(O)c(OC)c1 [Eugenol, eugenol]
[1]
  ADFd (digestibility of acid digestible fiber): 8.05%
  DMd (digestibility of the dry matter): 40.02%
  NDFd (digestibility of neutral digestible fiber): 5.63%
  digestibility of the fibers of the dehydrated alfalfa (in words): does not improve
